Experimental data: ChEMBL document CHEMBL1157360, “Characterization of an integron carrying blaIMP-1 and a new aminoglycoside resistance gene, aac(6')-31, and its dissemination among genetically unrelated clinical isolates in a Brazilian hospital” (2007)
Converted amounts (≈) assume the structure as drawn.

Experiments:
Format in all cases: functional
[1] = system: Pseudomonas putida; experiment: Antimicrobial activity against Pseudomonas putida 12346 isolate harboring bla IMP-1 carrying integron In86 containing aminoglycoside resistance gene aac(6')-3
[2] = system: Acinetobacter sp.; experiment: Antimicrobial activity against Acinetobacter sp. 5248 isolate harboring bla IMP-1 carrying integron In86 containing aminoglycoside resistance gene aac(6')-3
[3] = system: Acinetobacter sp.; experiment: Antimicrobial activity against Acinetobacter sp. 5227 isolate harboring bla IMP-1 carrying integron In86 containing aminoglycoside resistance gene aac(6')-3
[4] = system: Acinetobacter baumannii; experiment: Antimicrobial activity against Acinetobacter baumannii 501 isolate harboring bla IMP-1 carrying integron In86 containing aminoglycoside resistance gene aac(6')-3
[5] = system: Acinetobacter baumannii; experiment: Antimicrobial activity against Acinetobacter baumannii 695 isolate harboring bla IMP-1 carrying integron In86 containing aminoglycoside resistance gene aac(6')-3
[6] = system: Acinetobacter baumannii; experiment: Antimicrobial activity against Acinetobacter baumannii 9043 isolate harboring bla IMP-1 carrying integron In86 containing aminoglycoside resistance gene aac(6')-3
[7] = system: Acinetobacter baumannii; experiment: Antimicrobial activity against Acinetobacter baumannii 696 isolate harboring bla IMP-1 carrying integron In86 containing aminoglycoside resistance gene aac(6')-3
[8] = system: Acinetobacter baumannii; experiment: Antimicrobial activity against Acinetobacter baumannii 694 isolate harboring bla IMP-1 carrying integron In86 containing aminoglycoside resistance gene aac(6')-3
[9] = system: Escherichia coli; experiment: Antimicrobial activity against Escherichia coli DH5alpha
[10] = system: Escherichia coli; experiment: Antimicrobial activity against Escherichia coli DH5alpha harboring recombinant pIMPAR31

Structure (SMILES)	MIC [1] [µg/mL]	MIC [2] [µg/mL]	MIC [3] [µg/mL]	MIC [4] [µg/mL]	MIC [5] [µg/mL]	MIC [6] [µg/mL]	MIC [7] [µg/mL]	MIC [8] [µg/mL]	MIC [9] [µg/mL]	MIC [10] [µg/mL]
O=C(O)c1cn(C2CC2)c2cc(N3CCNCC3)c(F)cc2c1=O [CIPROFLOXACIN]	> 2	> 4	2 (≈ 6.04 µM)	0.12 (≈ 0.362 µM)	> 4	> 2	0.5 (≈ 1.51 µM)	1 (≈ 3.02 µM)		
NC[C@H]1O[C@H](O[C@H]2[C@H](O)[C@@H](O[C@H]3O[C@H](CO)[C@@H](O)[C@H](N)[C@H]3O)[C@H](N)C[C@@H]2N)[C@H](O)[C@@H](O)[C@@H]1O [KANAMYCIN]									0.5 (≈ 1.03 µM)	
NC[C@H]1O[C@H](O[C@H]2[C@H](O)[C@@H](O[C@H]3O[C@H](CO)[C@@H](O)[C@H](N)[C@H]3O)[C@H](N)C[C@@H]2N)[C@H](N)C[C@@H]1O [TOBRAMYCIN]	> 16	8 (≈ 17.1 µM)	16 (≈ 34.2 µM)	> 16	> 16	16 (≈ 34.2 µM)	16 (≈ 34.2 µM)	16 (≈ 34.2 µM)	0.25 (≈ 0.535 µM)	4
CO/N=C(\C(=O)N[C@@H]1C(=O)N2C(C(=O)[O-])=C(C[N+]3(C)CCCC3)CS[C@H]12)c1csc(N)n1	> 16	> 16	> 16	> 16	> 16	> 16	> 16	> 16		
C[C@@H](O)[C@H]1C(=O)N2C(C(=O)O)=C(SCCNC=N)C[C@H]12 [IMIPENEM ANHYDROUS]	> 8	> 8	> 8	> 8	> 8	> 8	> 8	> 8		
CC1(C)S[C@@H]2[C@H](NC(=O)[C@H](N)c3ccccc3)C(=O)N2[C@H]1C(=O)O [AMPICILLIN]	> 16	> 16	> 16	> 16	> 16	> 16	> 16	> 16		
CCN[C@@H]1C[C@H](N)[C@@H](O[C@H]2OC(CN)=CC[C@H]2N)[C@H](O)[C@H]1O[C@H]1OC[C@](C)(O)[C@H](NC)[C@H]1O [NETILMICIN]	> 32	16 (≈ 33.6 µM)	> 32	> 32	8 (≈ 16.8 µM)	> 32	32 (≈ 67.3 µM)	32 (≈ 67.3 µM)	0.5 (≈ 1.05 µM)	4
COc1c(N2CCNC(C)C2)c(F)cc2c(=O)c(C(=O)O)cn(C3CC3)c12 (stereo not drawn) [GATIFLOXACIN]	> 4	4 (≈ 10.7 µM)	1 (≈ 2.66 µM)	0.12 (≈ 0.32 µM)	4 (≈ 10.7 µM)	> 4	0.06 (≈ 0.16 µM)	0.25 (≈ 0.666 µM)		
C[C@H]1[C@H](NC(=O)/C(=N\OC(C)(C)C(=O)O)c2csc(N)n2)C(=O)N1S(=O)(=O)O [AZTREONAM]	> 16	> 16	> 16	> 16	> 16	> 16	> 16	> 16		
CCN1CCN(C(=O)N[C@@H](C(=O)N[C@@H]2C(=O)N3[C@@H]2SC(C)(C)[C@@H]3C(=O)O)c2ccccc2)C(=O)C1=O [PIPERACILLIN]	64 (≈ 124 µM)	> 128	> 128	32 (≈ 61.8 µM)	128 (≈ 247 µM)	> 128	> 128	> 128		
NCC[C@H](O)C(=O)N[C@@H]1C[C@H](N)[C@@H](O[C@H]2O[C@H](CN)[C@@H](O)[C@H](O)[C@H]2O)[C@H](O)[C@H]1O[C@H]1O[C@H](CO)[C@@H](O)[C@H](N)[C@H]1O [AMIKACIN]	> 32	32 (≈ 54.6 µM)	> 32	32 (≈ 54.6 µM)	32 (≈ 54.6 µM)	> 32	> 32	> 32	0.5 (≈ 0.854 µM)	8
C[C@@H](O)[C@H]1C(=O)N2C(C(=O)O)=C(S[C@@H]3CN[C@H](C(=O)N(C)C)C3)[C@H](C)[C@H]12 [MEROPENEM]	> 8	> 8	> 8	> 8	> 8	> 8	> 8	> 8		
CC1(C)S[C@@H]2[C@H](NC(=O)[C@H](C(=O)O)c3ccsc3)C(=O)N2[C@H]1C(=O)O [TICARCILLIN]	> 128	> 128	> 128	> 128	> 128	> 128	> 128	> 128		
C[C@H]1COc2c(N3CCN(C)CC3)c(F)cc3c(=O)c(C(=O)O)cn1c23.C[C@H]1COc2c(N3CCN(C)CC3)c(F)cc3c(=O)c(C(=O)O)cn1c23.O [LEVOFLOXACIN]	> 4	4	2	0.25	> 4	> 4	0.25	0.25		
CN[C@@H]1[C@@H](O)[C@@H](O[C@@H]2[C@@H](O)[C@H](O[C@H]3OC(CN)=CC[C@H]3N)[C@@H](N)C[C@H]2N)OC[C@]1(C)O [SISOMICIN]									≤ 0.25	8
CN[C@@H]1[C@@H](O)[C@@H](O[C@@H]2[C@@H](O)[C@H](O[C@H]3O[C@H](CN)[C@@H](O)[C@H](O)[C@H]3O)[C@@H](N)C[C@H]2NC(=O)[C@@H](O)CN)OC[C@]1(C)O [ISEPAMICIN]									0.12 (≈ 0.211 µM)	4
CC(C)(O/N=C(\C(=O)N[C@@H]1C(=O)N2C(C(=O)[O-])=C(C[n+]3ccccc3)CS[C@H]12)c1csc(N)n1)C(=O)O [CEFTAZIDIME]	> 16	> 16	> 16	> 16	> 16	> 16	> 16	> 16		
